Reference: article PMC7305236, “The atypical chemokine receptor ACKR3/CXCR7 is a broad-spectrum scavenger for opioid peptides” (Nature Communications, 2020)
Read-outs that look alike come from different tables or passages of the source.

Assays:
Assay type in all cases: cell-based
[1] = Figure 7g: values after +LIH383, +LIH inverse, +CXCL12, +CXCL10
CXCR7 = target: T1, CXCR7 (Homo sapiens, UniProt P25106); experiment: Figure S1a: screen of opioid peptides on CXCR7
T1 construct: expressed in transfected cells; host or cells: U87 cells

CXCR4 = target: T2, CXCR4 (Homo sapiens, UniProt P61073)
T2 construct: expressed in transfected cells; host or cells: U87, transient cotransfection of pNBe vectors

CXCR3A = target: T3, CXCR3A (Homo sapiens, UniProt P49682); experiment: Figure S1a: screen of opioid peptides on CXCR3A; conditions: replicate 1
T3 construct: expressed in transfected cells; host or cells: U87 cells
T3 sequence (P49682 1-368): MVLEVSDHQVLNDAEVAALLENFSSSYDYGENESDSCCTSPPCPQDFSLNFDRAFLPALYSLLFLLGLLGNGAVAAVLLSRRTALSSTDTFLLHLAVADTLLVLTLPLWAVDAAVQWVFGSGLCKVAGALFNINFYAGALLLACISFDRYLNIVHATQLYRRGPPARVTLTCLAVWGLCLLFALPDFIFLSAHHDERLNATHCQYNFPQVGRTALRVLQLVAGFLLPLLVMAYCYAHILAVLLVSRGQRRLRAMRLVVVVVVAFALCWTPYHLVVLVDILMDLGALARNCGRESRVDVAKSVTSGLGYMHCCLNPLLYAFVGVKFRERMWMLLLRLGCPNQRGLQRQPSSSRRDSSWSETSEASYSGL

U87 = experiment: Figure S6 EC50 comparison, U87 cells + chemokine; conditions: U87 cells + the labelled chemokine, titrated agonist not given, read-out: Ec50 (inset, Ec50 comparison)
U87.ACKR3 = experiment: Figure S6 EC50 comparison, U87.ACKR3 cells + chemokine; conditions: U87.ACKR3 cells + the labelled chemokine, titrated agonist not given, read-out: Ec50 (inset, Ec50 comparison)
[2] = Figure 7f: response to FBS, CXCL12, opioid peptides and LIH383 relative to Medium; conditions: Medium about 1
KOR [3] = target: T4, KOR (Homo sapiens, UniProt P41145); experiment: Figure 6h, KOR level after ligand with DMSO or Bafilomycin; parameters: expressed in transfected cells; host or cells: U87 (human glioblastoma)
KOR [4] = target: T4, KOR; experiment: Figure 6h, KOR, DMSO vs Bafilomycin treatment; parameters: expressed in transfected cells; host or cells: U87 (human glioblastoma); conditions: n = 3 or 4 as in cell

T4 sequence (P41145 whole entry): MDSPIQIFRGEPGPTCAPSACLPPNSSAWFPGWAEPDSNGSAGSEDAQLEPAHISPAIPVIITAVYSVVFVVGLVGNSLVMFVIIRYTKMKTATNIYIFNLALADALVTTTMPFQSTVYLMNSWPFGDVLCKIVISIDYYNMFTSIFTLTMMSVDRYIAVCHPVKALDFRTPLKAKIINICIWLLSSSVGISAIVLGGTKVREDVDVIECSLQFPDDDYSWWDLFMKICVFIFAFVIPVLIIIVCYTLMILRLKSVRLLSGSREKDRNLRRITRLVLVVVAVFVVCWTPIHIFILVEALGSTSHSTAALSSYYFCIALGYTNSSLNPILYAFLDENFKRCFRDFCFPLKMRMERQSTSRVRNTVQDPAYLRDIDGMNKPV
T2 sequence (P61073 whole entry): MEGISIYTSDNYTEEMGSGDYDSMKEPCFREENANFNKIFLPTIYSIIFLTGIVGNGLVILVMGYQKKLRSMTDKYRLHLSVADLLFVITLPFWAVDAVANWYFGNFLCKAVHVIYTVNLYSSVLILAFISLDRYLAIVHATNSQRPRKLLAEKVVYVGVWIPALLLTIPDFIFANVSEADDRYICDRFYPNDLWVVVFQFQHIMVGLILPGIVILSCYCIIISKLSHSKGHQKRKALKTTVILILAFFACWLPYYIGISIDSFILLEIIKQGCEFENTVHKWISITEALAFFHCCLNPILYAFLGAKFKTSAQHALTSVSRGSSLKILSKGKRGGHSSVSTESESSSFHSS
T1 sequence (P25106 whole entry): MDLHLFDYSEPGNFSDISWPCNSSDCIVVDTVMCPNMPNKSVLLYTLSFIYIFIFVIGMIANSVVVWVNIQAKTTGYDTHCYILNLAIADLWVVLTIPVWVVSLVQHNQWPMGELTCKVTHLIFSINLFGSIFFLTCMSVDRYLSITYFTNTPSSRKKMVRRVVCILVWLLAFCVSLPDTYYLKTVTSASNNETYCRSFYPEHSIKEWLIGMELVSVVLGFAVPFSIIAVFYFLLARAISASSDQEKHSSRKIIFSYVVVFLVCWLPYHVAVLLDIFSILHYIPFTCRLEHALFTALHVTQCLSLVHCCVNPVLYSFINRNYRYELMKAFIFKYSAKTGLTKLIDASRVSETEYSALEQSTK

Substance | Figure 7g value ([1]; replicate 1) | Figure 7g value ([1]; replicate 2) | Figure 7g value ([1]; replicate 3) | Figure 7g value ([1]; replicate 4) | Figure S1a value, CXCR4 (CXCR4; replicate 1) | Figure S1a value, CXCR4 (CXCR4; replicate 2) | Figure S1a value, CXCR3A (CXCR3A) | EC50 (U87; replicate 1) | EC50 (U87; replicate 2) | EC50 (U87; replicate 3) | EC50 (U87.ACKR3; replicate 1) | EC50 (U87.ACKR3; replicate 2) | EC50 (U87.ACKR3; replicate 3) | also measured
CXCL10 | 43.9358 | 53.1833 | 71.6583 | 66.9981 | 64.0305 | 102.577 | 79.87 | 6.8 nM | 9.32 nM | 14 nM | 17.2 nM | 18.1 nM | 19.3 nM | Figure S1a value, CXCR7 (CXCR7; replicate 1): 93.7533; Figure S1a value, CXCR7 (CXCR7; replicate 2): 74.5914; EC50 (U87.ACKR3; replicate 4): 29.1 nM
CXCL12 | 102.594 | 103.187 | 90.4001 | 88.8058 | 122.173 | 86.6576 | 103.792 | 2.9 nM | 11 nM | 6.04 nM | 7.39 nM | 9.3 nM | 13.1 nM | Figure 7f value ([2]; replicate 1): 0.8915; Figure 7f value ([2]; replicate 2): 0.9254; Figure 7f value ([2]; replicate 4): 0.9153; EC50 (U87; replicate 4): 5.61 nM; KOR level after ligand (Figure 6h) (KOR [3]; Bafilomycin, replicate 1): 115.399; KOR level after ligand (Figure 6h) (KOR [3]; Bafilomycin, replicate 2): 101.029; KOR level after ligand (Figure 6h) (KOR [3]; Bafilomycin, replicate 3): 116.035; KOR level after ligand (Figure 6h) (KOR [3]; Bafilomycin, replicate 4): 117.81; KOR level after ligand (Figure 6h) (KOR [3]; DMSO, replicate 1): 95.0504; KOR level after ligand (Figure 6h) (KOR [3]; DMSO, replicate 3): 120.17; KOR level after ligand (Figure 6h) (KOR [3]; DMSO, replicate 4): 114.207; Mean ± SEM (Figure 6h, KOR) (KOR [4]; 'DMSO vs Bafilomycin treatment'): 112,6 ± 3,88, n=4; Mean ± SEM (Figure 6h, KOR) (KOR [4]; first of two columns under 'DMSO vs Bafilomycin treatment' (presumably DMSO)): 107,9 ± 5,673, n=4
